According to US9409905B2, “Antibacterial compounds and methods for use” (PTC THERAPEUTICS, INC., priority 2011, dated 2016):
Values after ≈ are worked out from the molar mass of the structure shown. Where two headings read alike, the source gives them in different places.

Legend:
[1] = system: Escherichia coli (E. coli) BAS849; test: Antibacterial activity, microbroth dilution MIC (Table 1); format: cell-based
Procedure, shortened: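 Read-out: visual absence of growth. The lowest concentration meeting this gives the MIC, expressed in μg/mL, with microbroth dilution as the method.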

[2] = system: Staphylococcus aureus (S. aureus) 29213; test: as above; format: cell-based
Procedure, shortened: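 Broth microdilution; endpoint = no macroscopic growth; value = lowest inhibiting concn, μg/mL.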

E. coli 25922 = test: as above; format: cell-based, Escherichia coli
Procedure, shortened: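 Using broth microdilution, MIC endpoints (μg/mL) mark where visible growth no longer appears; the panel spans sensitive and control Gram-negative strains plus a Gram-positive strain.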

E. coli LZ3111 = test: Antibacterial activity, MIC, quinolone resistant strain (Table 2); format: cell-based; conditions: Escherichia coli, LZ3111, read-out: MIC LZ3111
Procedure, shortened: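 Broth microdilution. Read-out: MIC in μg/mL, taken as lowest concentration with no macroscopically visible growth.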

[3] = system: Acinetobacter baumannii (A. baumannii) BAA747; test: Antibacterial activity, MIC (Table 4); format: cell-based
Procedure, shortened: (§1)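 MIC in μg/mL by microbroth dilution, scored as the lowest level that suppresses visible growth.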

[4] = system: Klebsiella pneumoniae (K. pneumoniae) 35657; test: Antibacterial activity, MIC (Table 4); format: cell-based
Procedure, shortened: as §1

A. baumannii MXX2240 = test: Antibacterial activity, MIC, resistant strain (Table 4); format: cell-based; conditions: Acinetobacter baumannii
Procedure, shortened: as §1

K. pneumoniae MXX1232 = test: as above; format: cell-based; conditions: Klebsiella pneumoniae
Procedure, shortened: as §1

[5] = system: Pseudomonas aeruginosa (P. aeruginosa) 27853; test: Antibacterial activity, MIC (Table 5); format: cell-based
Procedure, shortened: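 Microbroth dilution; MIC (μg/mL) = lowest concentration with no macroscopically visible growth.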

[6] = microbroth dilution, super sensitive Gram-negative E. coli BAS849, read-out: MIC, BAS849
[7] = microbroth dilution, Gram-positive S. aureus 29213, read-out: MIC, 29213
[8] = Escherichia coli, microbroth dilution, control Gram-negative E. coli 25922 strain, read-out: MIC, 25922
[9] = A. baumannii BAA747, read-out: MIC, BAA747
[10] = K. pneumoniae 35657, read-out: MIC, 35657
[11] = MXX2240, resistant A. baumannii MMX2240, multi-drug resistant clinical isolate, read-out: MIC, MMX2240
[12] = MXX1232, resistant K. pneumoniae MMX1232, multi-drug resistant clinical isolate, read-out: MIC, MMX1232
[13] = P. aeruginosa 27853, read-out: MIC, 27853

Structure (SMILES)	MIC ([1]; read-out: MIC, BAS849)	MIC ([2]; read-out: MIC, 29213)	MIC (E. coli 25922; Escherichia coli, 25922, read-out: MIC, 25922)	MIC (E. coli LZ3111)	MIC ([3]; BAA747, read-out: MIC, BAA747)	MIC ([4]; read-out: MIC, 35657)	MIC (A. baumannii MXX2240; MXX2240, read-out: MIC, MMX2240)	MIC (K. pneumoniae MXX1232; MXX1232, read-out: MIC, MMX1232)	MIC ([5]; read-out: MIC, 27853)	MIC [1, 6]	MIC [2, 7]	MIC (E. coli 25922; [8])	MIC [3, 9]	MIC [4, 10]	MIC (A. baumannii MXX2240; [11])	MIC (K. pneumoniae MXX1232; [12])	MIC [5, 13]
CCCN1CCc2c([nH]c3cc(-c4[nH]c(=O)c(C(=O)O)c(O)c4CC)ccc23)C1 [Cpd 448, 5-ethyl-4-hydroxy-2-oxo-6-(2-propyl-2,3,4,9-tetrahydro-1H-pyrido[3,4-b]indol-7-yl)-1,2-dihydropyridine-3-carboxylic acid]	< 1 µg/mL	12.5 to 150 µg/mL (≈ 31.6 to 379 µM)	< 1 µg/mL	3.5 to 12.5 µg/mL (≈ 8.85 to 31.6 µM)	3.5 to 12.5 µg/mL (≈ 8.85 to 31.6 µM)	1 to 3.5 µg/mL (≈ 2.53 to 8.85 µM)	3.5 to 12.5 µg/mL (≈ 8.85 to 31.6 µM)	12.5 to 150 µg/mL (≈ 31.6 to 379 µM)	12.5 to 150 µg/mL (≈ 31.6 to 379 µM)	–	–	–	–	–	–	–	–
CCc1c(-c2ccc3c4c([nH]c3c2)CN(C(C)C)CC4)[nH]c(=O)c(C(=O)O)c1O [Cpd 449, 5-ethyl-4-hydroxy-6-(2-isopropyl-2,3,4,9-tetrahydro-1H-pyrido[3,4-b]indol-7-yl)-2-oxo-1,2-dihydropyridine-3-carboxylic acid]	–	–	–	3.5 to 12.5 µg/mL (≈ 8.85 to 31.6 µM)	–	–	–	–	–	< 1 µg/mL	12.5 to 150 µg/mL (≈ 31.6 to 379 µM)	< 1 µg/mL	3.5 to 12.5 µg/mL (≈ 8.85 to 31.6 µM)	< 1 µg/mL	3.5 to 12.5 µg/mL (≈ 8.85 to 31.6 µM)	12.5 to 150 µg/mL (≈ 31.6 to 379 µM)	12.5 to 150 µg/mL (≈ 31.6 to 379 µM)
CCc1c(-c2ccc3c4c([nH]c3c2)CCNC4)[nH]c(=O)c(C(=O)O)c1O [Cpd 450, 5-ethyl-4-hydroxy-2-oxo-6-(2,3,4,5-tetrahydro-1H-pyrido[4,3-b]indol-7-yl)-1,2-dihydropyridine-3-carboxylic acid]	–	–	–	12.5 to 150 µg/mL (≈ 35.4 to 424 µM)	–	–	–	–	–	3.5 to 12.5 µg/mL (≈ 9.9 to 35.4 µM)	12.5 to 150 µg/mL (≈ 35.4 to 424 µM)	12.5 to 150 µg/mL (≈ 35.4 to 424 µM)	12.5 to 150 µg/mL (≈ 35.4 to 424 µM)	3.5 to 12.5 µg/mL (≈ 9.9 to 35.4 µM)	12.5 to 150 µg/mL (≈ 35.4 to 424 µM)	12.5 to 150 µg/mL (≈ 35.4 to 424 µM)	12.5 to 150 µg/mL (≈ 35.4 to 424 µM)
CCc1c(-c2ccc3c4c([nH]c3c2)CCN(C)C4)[nH]c(=O)c(C(=O)O)c1O [Cpd 451, 5-ethyl-4-hydroxy-6-(2-methyl-2,3,4,5-tetrahydro-1H-pyrido[4,3-b]indol-7-yl)-2-oxo-1,2-dihydropyridine-3-carboxylic acid]	–	–	–	3.5 to 12.5 µg/mL (≈ 9.53 to 34 µM)	–	–	–	–	–	< 1 µg/mL	12.5 to 150 µg/mL (≈ 34 to 408 µM)	< 1 µg/mL	3.5 to 12.5 µg/mL (≈ 9.53 to 34 µM)	< 1 µg/mL	12.5 to 150 µg/mL (≈ 34 to 408 µM)	12.5 to 150 µg/mL (≈ 34 to 408 µM)	12.5 to 150 µg/mL (≈ 34 to 408 µM)
CCc1c(-c2ccc3c4c([nH]c3c2)CCN(CC)C4)[nH]c(=O)c(C(=O)O)c1O [Cpd 452, 5-ethyl-6-(2-ethyl-2,3,4,5-tetrahydro-1H-pyrido[4,3-b]indol-7-yl)-4-hydroxy-2-oxo-1,2-dihydropyridine-3-carboxylic acid]	–	–	–	12.5 to 150 µg/mL (≈ 32.8 to 393 µM)	–	–	–	–	–	< 1 µg/mL	12.5 to 150 µg/mL (≈ 32.8 to 393 µM)	< 1 µg/mL	12.5 to 150 µg/mL (≈ 32.8 to 393 µM)	1 to 3.5 µg/mL (≈ 2.62 to 9.18 µM)	12.5 to 150 µg/mL (≈ 32.8 to 393 µM)	12.5 to 150 µg/mL (≈ 32.8 to 393 µM)	12.5 to 150 µg/mL (≈ 32.8 to 393 µM)
CCc1c(-c2ccc3[nH]c(-c4ccc(C#N)cc4)cc3c2)[nH]c(=O)c(C(=O)O)c1O [Cpd 453, 6-(2-(4-cyanophenyl)-1H-indol-5-yl)-5-ethyl-4-hydroxy-2-oxo-1,2-dihydropyridine-3-carboxylic acid]	–	–	–	12.5 to 150 µg/mL (≈ 31.3 to 376 µM)	–	–	–	–	–	< 1 µg/mL	1 to 3.5 µg/mL (≈ 2.5 to 8.76 µM)	12.5 to 150 µg/mL (≈ 31.3 to 376 µM)	12.5 to 150 µg/mL (≈ 31.3 to 376 µM)	12.5 to 150 µg/mL (≈ 31.3 to 376 µM)	12.5 to 150 µg/mL (≈ 31.3 to 376 µM)	12.5 to 150 µg/mL (≈ 31.3 to 376 µM)	12.5 to 150 µg/mL (≈ 31.3 to 376 µM)
CCc1c(-c2ccc3[nH]c(-c4ccccc4)cc3c2)[nH]c(=O)c(C(=O)O)c1O [Cpd 454, 5-ethyl-4-hydroxy-2-oxo-6-(2-phenyl-1H-indol-5-yl)-1,2-dihydropyridine-3-carboxylic acid]	–	–	–	12.5 to 150 µg/mL (≈ 33.4 to 401 µM)	–	–	–	–	–	< 1 µg/mL	< 1 µg/mL	12.5 to 150 µg/mL (≈ 33.4 to 401 µM)	12.5 to 150 µg/mL (≈ 33.4 to 401 µM)	12.5 to 150 µg/mL (≈ 33.4 to 401 µM)	12.5 to 150 µg/mL (≈ 33.4 to 401 µM)	12.5 to 150 µg/mL (≈ 33.4 to 401 µM)	12.5 to 150 µg/mL (≈ 33.4 to 401 µM)
CCc1c(-c2ccc3[nH]c(-c4ccc(C(F)(F)F)cc4)cc3c2)[nH]c(=O)c(C(=O)O)c1O [Cpd 455, 5-ethyl-4-hydroxy-2-oxo-6-(2-(4-(trifluoromethyl)phenyl)-1H-indol-5-yl)-1,2-dihydropyridine-3-carboxylic acid]	–	–	–	12.5 to 150 µg/mL (≈ 28.3 to 339 µM)	–	–	–	–	–	< 1 µg/mL	3.5 to 12.5 µg/mL (≈ 7.91 to 28.3 µM)	12.5 to 150 µg/mL (≈ 28.3 to 339 µM)	12.5 to 150 µg/mL (≈ 28.3 to 339 µM)	12.5 to 150 µg/mL (≈ 28.3 to 339 µM)	12.5 to 150 µg/mL (≈ 28.3 to 339 µM)	12.5 to 150 µg/mL (≈ 28.3 to 339 µM)	12.5 to 150 µg/mL (≈ 28.3 to 339 µM)
